Source: patent US20070116745A1, “Spermicidal preparations and uses thereof” (CONVE LTD., priority 2004, published 2007)

Key:
sperm = experiment: Modified Sander-Cramer assay (complete sperm immobilization); type: cell-based; conditions: solvent 0.9% NaCl pH 5, 30-second coincubation, n=6
Protocol: The above formulations were used in a series of (i) Sander-Cramer assays (assessment of complete sperm immobilization during a 30-second, compound-sperm coincubation); and (ii) cervical mucous (CM) penetration assays (compound is pre-incubated with a CM microcolumn for 30 minutes, after which sperm are introduced into the system; sperm migration through the mucous is compared to that of control).

[1] = Solubility in assay solvent (Table 1); type: physicochemical; conditions: in 0.9% NaCl pH 5 at initial conc

With nonoxynol-9 the “HIGHEST SPERMICIDAL DILUTION (1/X)” value (sperm; initial conc 1 mg/ml) was 8.0 ± 0.0 1/X, the “M.E.C. (Minimum Effective Concentration)” value (sperm) was 0.125 ± 0.000 mg/mL and the SOLUBILITY [1] was “OK - clear”.
